What was measured:
Assay in all cases: KINOMEscan scanEDGE
Type in all cases: binding
Conditions in all cases: read-out: Percent Control
[1] = target: T1, PLK4 (Homo sapiens, UniProt O00444)
T1 construct: purchased Eurofins DiscoverX KINOMEscan scanEDGE
Description: (§1) Kinome Scan. Compound HTW_A_8 fumarate was screened against 97 kinases at a single concentration of 10 μM at Eurofins DiscoverX using their KINOMEscan™ scanEDGE assay. The results are reported as the % activity relative to DMSO control, where lower values indicate higher affinity. See Table 1 for the full kinome profile.

[2] = target: T2, DCAMKL1 (Homo sapiens, UniProt O15075)
T2 construct: purchased Eurofins DiscoverX
Description: as §1

[3] = target: T3, MKNK2 (Homo sapiens, UniProt Q9HBH9)
T3 construct: purchased Eurofins DiscoverX (KINOMEscan scanEDGE service)
Description: as §1

[4] = target: T4, PDPK1 (Homo sapiens, UniProt O15530)
T4 construct: purchased Eurofins DiscoverX (KINOMEscan scanEDGE service)
Description: as §1

[5] = target: T5, ADCK3 (Homo sapiens, UniProt Q8NI60)
T5 construct: purchased Eurofins DiscoverX
Description: as §1

[6] = target: T6, PIK3CG (Homo sapiens, UniProt P48736)
T6 construct: purchased Eurofins DiscoverX (KINOMEscan scanEDGE service)
Description: as §1

[7] = target: T7, p38-alpha (Homo sapiens, UniProt Q16539)
T7 construct: purchased Eurofins DiscoverX (KINOMEscan scanEDGE service)
Description: as §1

[8] = target: T8, SNARK (Homo sapiens, UniProt Q9H093)
T8 construct: purchased Eurofins DiscoverX KINOMEscan scanEDGE
Description: as §1

[9] = target: T9, BMPR2 (Homo sapiens, UniProt Q13873)
T9 construct: purchased Eurofins DiscoverX
Description: as §1

[10] = target: T10, TRKA (Homo sapiens, UniProt P04629)
T10 construct: purchased Eurofins DiscoverX KINOMEscan scanEDGE
Description: as §1

[11] = target: T11, IGF1R (Homo sapiens, UniProt P08069)
T11 construct: purchased Eurofins DiscoverX
T11 sequence (P08069 31-1367): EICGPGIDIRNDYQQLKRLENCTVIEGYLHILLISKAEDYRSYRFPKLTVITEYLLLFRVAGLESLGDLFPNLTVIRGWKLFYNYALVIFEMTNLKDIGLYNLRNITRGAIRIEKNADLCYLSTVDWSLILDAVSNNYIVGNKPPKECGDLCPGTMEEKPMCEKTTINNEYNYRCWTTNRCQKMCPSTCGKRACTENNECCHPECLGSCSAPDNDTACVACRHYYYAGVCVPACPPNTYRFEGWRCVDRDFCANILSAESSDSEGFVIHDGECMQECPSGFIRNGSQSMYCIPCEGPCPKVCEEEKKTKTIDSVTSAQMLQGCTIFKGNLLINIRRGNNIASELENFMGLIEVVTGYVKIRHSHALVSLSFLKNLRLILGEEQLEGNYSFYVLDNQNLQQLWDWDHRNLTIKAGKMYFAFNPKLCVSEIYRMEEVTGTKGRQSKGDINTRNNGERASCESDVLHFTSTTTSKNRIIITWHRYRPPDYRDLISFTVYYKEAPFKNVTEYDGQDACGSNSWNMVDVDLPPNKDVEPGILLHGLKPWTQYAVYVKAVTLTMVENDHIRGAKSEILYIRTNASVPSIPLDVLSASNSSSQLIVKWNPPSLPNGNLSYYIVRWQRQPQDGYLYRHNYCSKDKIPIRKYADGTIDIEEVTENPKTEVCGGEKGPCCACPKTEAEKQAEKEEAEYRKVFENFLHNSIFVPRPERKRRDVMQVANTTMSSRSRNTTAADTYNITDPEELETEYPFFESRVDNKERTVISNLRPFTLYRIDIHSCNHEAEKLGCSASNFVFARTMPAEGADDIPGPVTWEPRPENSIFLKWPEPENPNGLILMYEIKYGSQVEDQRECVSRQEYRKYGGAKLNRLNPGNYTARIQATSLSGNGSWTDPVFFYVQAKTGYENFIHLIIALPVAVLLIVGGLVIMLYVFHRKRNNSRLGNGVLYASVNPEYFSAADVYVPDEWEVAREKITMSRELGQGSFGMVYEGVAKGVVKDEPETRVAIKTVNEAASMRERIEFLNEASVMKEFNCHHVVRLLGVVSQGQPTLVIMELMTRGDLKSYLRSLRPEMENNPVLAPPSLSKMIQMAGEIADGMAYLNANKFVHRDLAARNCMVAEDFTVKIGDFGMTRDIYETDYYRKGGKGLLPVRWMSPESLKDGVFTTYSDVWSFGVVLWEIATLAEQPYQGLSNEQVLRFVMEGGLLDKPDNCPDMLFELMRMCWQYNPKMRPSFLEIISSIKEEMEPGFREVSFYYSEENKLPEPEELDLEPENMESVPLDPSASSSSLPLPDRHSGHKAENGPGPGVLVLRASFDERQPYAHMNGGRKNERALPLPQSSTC
Description: as §1

[12] = target: T12, ROCK2 (Homo sapiens, UniProt O75116)
T12 construct: purchased Eurofins DiscoverX KINOMEscan scanEDGE
T12 sequence (O75116 whole entry): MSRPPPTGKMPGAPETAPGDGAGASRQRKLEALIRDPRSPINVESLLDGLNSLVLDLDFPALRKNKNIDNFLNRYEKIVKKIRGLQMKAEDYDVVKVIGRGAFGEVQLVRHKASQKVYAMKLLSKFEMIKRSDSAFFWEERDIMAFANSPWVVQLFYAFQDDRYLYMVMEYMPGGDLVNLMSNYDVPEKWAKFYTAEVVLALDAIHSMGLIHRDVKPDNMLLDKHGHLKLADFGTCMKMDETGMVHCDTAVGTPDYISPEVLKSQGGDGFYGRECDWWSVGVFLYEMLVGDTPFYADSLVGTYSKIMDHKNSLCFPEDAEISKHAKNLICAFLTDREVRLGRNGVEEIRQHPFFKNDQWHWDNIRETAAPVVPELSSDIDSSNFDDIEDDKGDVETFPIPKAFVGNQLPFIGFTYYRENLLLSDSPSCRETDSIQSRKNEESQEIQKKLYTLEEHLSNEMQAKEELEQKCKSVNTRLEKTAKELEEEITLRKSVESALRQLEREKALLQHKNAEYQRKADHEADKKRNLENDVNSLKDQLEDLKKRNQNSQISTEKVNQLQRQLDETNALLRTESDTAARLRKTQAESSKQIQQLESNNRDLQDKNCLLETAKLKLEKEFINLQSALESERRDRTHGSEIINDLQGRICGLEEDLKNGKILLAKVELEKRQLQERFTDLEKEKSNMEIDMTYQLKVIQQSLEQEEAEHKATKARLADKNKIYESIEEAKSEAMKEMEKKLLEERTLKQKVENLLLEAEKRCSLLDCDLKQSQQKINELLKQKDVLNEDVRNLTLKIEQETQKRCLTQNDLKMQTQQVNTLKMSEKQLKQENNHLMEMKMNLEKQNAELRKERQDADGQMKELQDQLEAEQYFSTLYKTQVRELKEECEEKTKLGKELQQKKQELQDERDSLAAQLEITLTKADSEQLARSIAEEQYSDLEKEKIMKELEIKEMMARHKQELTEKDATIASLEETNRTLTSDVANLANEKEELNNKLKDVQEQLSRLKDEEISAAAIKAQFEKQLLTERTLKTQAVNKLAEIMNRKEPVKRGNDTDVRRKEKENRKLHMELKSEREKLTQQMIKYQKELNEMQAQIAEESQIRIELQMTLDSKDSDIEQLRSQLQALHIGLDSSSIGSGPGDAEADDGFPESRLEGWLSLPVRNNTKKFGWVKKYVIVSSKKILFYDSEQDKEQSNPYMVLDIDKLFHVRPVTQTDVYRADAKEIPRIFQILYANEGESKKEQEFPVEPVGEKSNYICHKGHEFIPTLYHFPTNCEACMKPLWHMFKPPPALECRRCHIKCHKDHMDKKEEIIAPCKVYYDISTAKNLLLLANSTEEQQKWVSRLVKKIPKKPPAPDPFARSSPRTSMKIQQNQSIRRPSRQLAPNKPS
Description: as §1

[13] = target: T13, CSNK1G2 (Homo sapiens, UniProt P78368)
T13 construct: purchased Eurofins DiscoverX
Description: as §1

[14] = target: T14, TYK2(JH1domain-catalytic) (Homo sapiens, UniProt P29597)
T14 construct: TYK2(JH1domain-catalytic); purchased Eurofins DiscoverX KINOMEscan scanEDGE
Description: as §1

[15] = target: T15, KIT(V559D, T670I) (Homo sapiens, UniProt P10721, T670I/V559D)
T15 construct: purchased Eurofins DiscoverX
Description: as §1

[16] = target: T16, DYRK1B (Homo sapiens, UniProt Q9Y463)
T16 construct: purchased Eurofins DiscoverX
Description: as §1

[17] = target: T17, YANK3 (Homo sapiens, UniProt Q86UX6)
T17 construct: purchased Eurofins DiscoverX KINOMEscan scanEDGE
T17 sequence (Q86UX6 whole entry): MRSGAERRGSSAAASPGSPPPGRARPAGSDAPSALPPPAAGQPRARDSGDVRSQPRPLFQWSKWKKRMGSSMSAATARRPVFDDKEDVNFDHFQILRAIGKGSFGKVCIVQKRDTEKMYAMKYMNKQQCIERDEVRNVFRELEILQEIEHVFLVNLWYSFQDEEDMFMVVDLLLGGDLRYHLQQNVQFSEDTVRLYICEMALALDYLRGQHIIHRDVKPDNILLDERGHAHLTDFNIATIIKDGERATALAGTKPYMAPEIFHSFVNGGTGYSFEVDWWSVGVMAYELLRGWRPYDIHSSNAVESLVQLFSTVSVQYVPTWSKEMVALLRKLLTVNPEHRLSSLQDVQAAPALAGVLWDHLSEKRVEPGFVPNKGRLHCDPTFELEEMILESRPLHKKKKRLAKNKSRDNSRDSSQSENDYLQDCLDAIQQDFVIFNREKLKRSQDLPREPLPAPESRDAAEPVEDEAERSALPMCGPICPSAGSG
Description: as §1

[18] = target: T18, AKT2 (Homo sapiens, UniProt P31751)
T18 construct: purchased Eurofins DiscoverX
Description: as §1

[19] = target: T19, INSR (Homo sapiens, UniProt P06213)
T19 construct: purchased Eurofins DiscoverX
Description: as §1

[20] = target: T20, FLT3 (Homo sapiens, UniProt P36888)
T20 construct: purchased Eurofins DiscoverX
Description: as §1

[21] = target: T21, FGFR2 (Homo sapiens, UniProt P21802)
T21 construct: purchased Eurofins DiscoverX
Description: as §1

[22] = target: T22, TIE2 (Homo sapiens, UniProt Q02763)
T22 construct: purchased Eurofins DiscoverX KINOMEscan scanEDGE
Description: as §1

[23] = target: T23, JAK3(JH1domain-catalytic) (Homo sapiens, UniProt P52333)
T23 construct: JAK3(JH1domain-catalytic); purchased Eurofins DiscoverX
T23 sequence (P52333 822-1111 limits assumed): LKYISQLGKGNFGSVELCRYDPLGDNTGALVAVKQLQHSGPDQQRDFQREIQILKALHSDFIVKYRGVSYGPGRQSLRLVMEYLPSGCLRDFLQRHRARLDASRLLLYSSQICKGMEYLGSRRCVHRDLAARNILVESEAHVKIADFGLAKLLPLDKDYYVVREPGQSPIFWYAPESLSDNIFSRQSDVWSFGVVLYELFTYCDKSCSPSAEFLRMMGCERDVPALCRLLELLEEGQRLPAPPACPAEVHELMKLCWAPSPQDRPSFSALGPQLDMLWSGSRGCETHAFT
Description: as §1

[24] = target: T24, PCTK1 (Homo sapiens, UniProt Q00536)
T24 construct: purchased Eurofins DiscoverX (KINOMEscan scanEDGE service)
Description: as §1

[25] = target: T25, FGFR3 (Homo sapiens, UniProt P22607)
T25 construct: purchased Eurofins DiscoverX
Description: as §1

[26] = target: T26, FAK (Homo sapiens, UniProt Q05397)
T26 construct: purchased Eurofins DiscoverX
Description: as §1

[27] = target: T27, PAK2 (Homo sapiens, UniProt Q13177)
T27 construct: purchased Eurofins DiscoverX (KINOMEscan scanEDGE service)
T27 sequence (Q13177 whole entry): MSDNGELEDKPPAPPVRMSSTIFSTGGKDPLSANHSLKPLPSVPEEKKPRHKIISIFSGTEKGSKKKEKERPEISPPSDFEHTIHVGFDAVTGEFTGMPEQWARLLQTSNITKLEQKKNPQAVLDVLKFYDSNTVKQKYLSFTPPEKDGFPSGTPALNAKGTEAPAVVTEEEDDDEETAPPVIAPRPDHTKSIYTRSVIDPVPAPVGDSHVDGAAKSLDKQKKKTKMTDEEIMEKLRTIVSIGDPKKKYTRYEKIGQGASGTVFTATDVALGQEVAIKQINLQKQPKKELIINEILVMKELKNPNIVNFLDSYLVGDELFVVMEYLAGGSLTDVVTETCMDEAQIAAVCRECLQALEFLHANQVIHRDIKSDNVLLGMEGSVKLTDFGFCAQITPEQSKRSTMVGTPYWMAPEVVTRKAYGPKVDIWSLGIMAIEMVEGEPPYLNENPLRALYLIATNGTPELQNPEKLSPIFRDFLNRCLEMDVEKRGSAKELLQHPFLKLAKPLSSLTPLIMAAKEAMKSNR
Description: as §1

[28] = target: T28, LKB1 (Homo sapiens, UniProt Q15831)
T28 construct: purchased Eurofins DiscoverX (KINOMEscan scanEDGE service)
T28 sequence (Q15831 whole entry): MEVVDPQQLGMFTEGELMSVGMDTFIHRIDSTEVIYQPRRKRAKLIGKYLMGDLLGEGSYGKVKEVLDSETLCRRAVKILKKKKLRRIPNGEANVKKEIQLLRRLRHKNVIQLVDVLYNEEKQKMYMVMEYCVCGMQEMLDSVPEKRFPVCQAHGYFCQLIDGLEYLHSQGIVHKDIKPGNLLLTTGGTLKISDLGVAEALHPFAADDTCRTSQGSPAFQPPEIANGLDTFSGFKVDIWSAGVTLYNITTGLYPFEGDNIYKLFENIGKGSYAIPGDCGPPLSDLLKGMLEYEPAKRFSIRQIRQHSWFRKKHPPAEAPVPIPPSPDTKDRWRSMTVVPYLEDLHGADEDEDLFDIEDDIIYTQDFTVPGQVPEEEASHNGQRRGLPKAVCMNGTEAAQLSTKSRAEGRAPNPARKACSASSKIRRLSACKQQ
Description: as §1

[29] = target: T29, ERBB2 (Homo sapiens, UniProt P04626)
T29 construct: purchased Eurofins DiscoverX
Description: as §1

[30] = target: T30, PLK1 (Homo sapiens, UniProt P53350)
T30 construct: purchased Eurofins DiscoverX KINOMEscan scanEDGE
Description: as §1

[31] = target: T31, SRPK3 (Homo sapiens, UniProt Q9UPE1)
T31 construct: purchased Eurofins DiscoverX KINOMEscan scanEDGE
T31 sequence (Q9UPE1 whole entry): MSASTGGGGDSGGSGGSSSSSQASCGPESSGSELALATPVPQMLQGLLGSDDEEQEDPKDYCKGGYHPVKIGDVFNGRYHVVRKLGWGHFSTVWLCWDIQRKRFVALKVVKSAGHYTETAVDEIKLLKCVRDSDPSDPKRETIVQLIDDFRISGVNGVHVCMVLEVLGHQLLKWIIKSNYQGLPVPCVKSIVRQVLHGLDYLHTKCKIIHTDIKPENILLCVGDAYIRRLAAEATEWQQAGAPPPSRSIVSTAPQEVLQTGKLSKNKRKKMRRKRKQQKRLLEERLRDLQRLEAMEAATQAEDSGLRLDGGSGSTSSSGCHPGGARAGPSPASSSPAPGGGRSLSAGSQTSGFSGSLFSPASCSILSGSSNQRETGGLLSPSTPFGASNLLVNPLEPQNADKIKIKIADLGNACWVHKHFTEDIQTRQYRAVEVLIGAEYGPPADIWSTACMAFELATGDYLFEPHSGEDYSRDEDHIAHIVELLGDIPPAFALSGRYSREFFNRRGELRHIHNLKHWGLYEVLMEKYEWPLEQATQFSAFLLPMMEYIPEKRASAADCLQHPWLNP
Description: as §1

[32] = target: T32, CDK3 (Homo sapiens, UniProt Q00526)
T32 construct: purchased Eurofins DiscoverX
Description: as §1

[33] = target: T33, MARK3 (Homo sapiens, UniProt P27448)
T33 construct: purchased Eurofins DiscoverX (KINOMEscan scanEDGE service)
Description: as §1

[34] = target: T34, ULK2 (Homo sapiens, UniProt Q8IYT8)
T34 construct: purchased Eurofins DiscoverX KINOMEscan scanEDGE
Description: as §1

[35] = target: T35, AXL (Homo sapiens, UniProt P30530)
T35 construct: purchased Eurofins DiscoverX
Description: as §1

[36] = target: T36, MET (Homo sapiens, UniProt P08581)
T36 construct: purchased Eurofins DiscoverX (KINOMEscan scanEDGE service)
Description: as §1

[37] = target: T37, CDK9 (Homo sapiens, UniProt P50750)
T37 construct: purchased Eurofins DiscoverX
Description: as §1

[38] = target: T38, CDK2 (Homo sapiens, UniProt P24941)
T38 construct: purchased Eurofins DiscoverX
Description: as §1

COc1ccc2c3ccnc(C)c3n(CCN(C)C)c2c1.O=C(O)/C=C/C(=O)O [HTW_A_8 fumarate, 2-(7-methoxy-1-methyl-9H-pyrido[3,4-b]indol-9-yl)-N,N-dimethylethan-1-amine Fumarate Salt (2:3)]
remaining binding at 10 µM [1]: 81%
remaining binding at 10 µM [2]: 98%
remaining binding at 10 µM [3]: 100%
remaining binding at 10 µM [4]: 76%
remaining binding at 10 µM [5]: 100%
remaining binding at 10 µM [6]: 33%
remaining binding at 10 µM [7]: 100%
remaining binding at 10 µM [8]: 100%
remaining binding at 10 µM [9]: 100%
remaining binding at 10 µM [10]: 93%
remaining binding at 10 µM [11]: 85%
remaining binding at 10 µM [12]: 73%
remaining binding at 10 µM [13]: 86%
remaining binding at 10 µM [14]: 97%
remaining binding at 10 µM [15]: 89%
remaining binding at 10 µM [16]: 10%
remaining binding at 10 µM [17]: 94%
remaining binding at 10 µM [18]: 100%
remaining binding at 10 µM [19]: 100%
remaining binding at 10 µM [20]: 85%
remaining binding at 10 µM [21]: 95%
remaining binding at 10 µM [22]: 99%
remaining binding at 10 µM [23]: 100%
remaining binding at 10 µM [24]: 96%
remaining binding at 10 µM [25]: 95%
remaining binding at 10 µM [26]: 100%
remaining binding at 10 µM [27]: 96%
remaining binding at 10 µM [28]: 71%
remaining binding at 10 µM [29]: 100%
remaining binding at 10 µM [30]: 100%
remaining binding at 10 µM [31]: 81%
remaining binding at 10 µM [32]: 91%
remaining binding at 10 µM [33]: 100%
remaining binding at 10 µM [34]: 100%
remaining binding at 10 µM [35]: 97%
remaining binding at 10 µM [36]: 100%
remaining binding at 10 µM [37]: 100%
remaining binding at 10 µM [38]: 100%

From US20260284018A1, “DUAL INHIBITORS OF DYRK1A AND 5-HT2 FOR TREATING A BRAIN DISORDER” (THE REGENTS OF THE UNIVERSITY OF CALIFORNIA, priority 2023, published 2026)
